Reference: article PMC11350787, “Antimicrobial Properties and Cytotoxicity of LL-37-Derived Synthetic Peptides to Treat Orthopedic Infections” (Antibiotics, 2024)
Peptide text beside a SMILES is read from it.

How the values were obtained:
ATCC strains = conditions: 18 h
Text: (§1) A total of 18 bacterial strains relevant to orthopedic infections were used for microbiological tests, including 8 ATCC (American Type Culture Collection, ATCC, Manassas, VA, USA) and 10 clinical isolates (CI) from the Laboratory of Clinical Chemistry and Microbiology, IRCCS Ospedale Galeazzi–Sant’Ambrogio of Milan (Italy) strain collection. The ATCC strains were used for the first screening (MIC/MBC) of all the AMPs produced, while the clinical isolates were used for further MIC/MBC assays on selected AMPs. Among CI, S. epidermidis GOI1153754-03-14 has been already characterized and used in previous studies. All the strains were stocked at −80°C and working stocks were stored at −20 °C. At the occurrence, the bacteria were resuscitated in Brain Hearth Infusion (BHI, Millipore, Milan, Italy) broth at 37 °C for 18 h from the working stocks.
(§2) To determine the minimum inhibitory concentration (MIC) and the minimum bactericidal concentration (MBC), ISO20776-1 and Clinical and Laboratory Standards Institute guidelines were followed. A commercial synthetic LL-37 (Aurogene, Rome, Italy) was used as the control in the MIC and MBC assays. A stock solution of each AMP was prepared at 600 µg/mL to achieve a final concentration of 300 µg/mL. […] The MIC was determined according to the aforementioned standard guidelines. The MBC was determined by plating 2 µL of culture from each well of the MIC plates on a Tryptic Soy Agar (TSA, Millipore, Milan, Italy) plate and incubated for 24 h at 37 °C. The concentration at which there was no growth was recorded as MBC. Each experiment was carried out in triplicate. Representative MIC and MBC values for vancomycin and gentamicin were assessed to offer a benchmark comparison for the AMPs. Quality control was conducted with Staphylococcus aureus ATCC 29,213 and vancomycin according to EUCAST guidelines.

S. aureus ATCC 49230 = assay: microbe, parasite or virus in culture; conditions: for Minimum Inhibitory Concentration (MIC): ATCC 49230, 18 h; for Minimum Bactericidal Concentration (MBC): ATCC 49230, 24 h
Text: as §1, §2

S. aureus ATCC 43300 = assay: microbe, parasite or virus in culture; conditions: for Minimum Inhibitory Concentration (MIC): ATCC 43300, 18 h; for Minimum Bactericidal Concentration (MBC): ATCC 43300, 24 h
Text: as §1, §2

[1] = system: S. epidermidis ATCC 35984; assay: microbe, parasite or virus in culture; conditions: for Minimum Inhibitory Concentration (MIC): ATCC 35984, 18 h; for Minimum Bactericidal Concentration (MBC): ATCC 35984, 24 h
Text: as §1, §2

S. aureus ATCC 25923 = assay: microbe, parasite or virus in culture; conditions: for Minimum Inhibitory Concentration (MIC): ATCC 25923, 18 h; for Minimum Bactericidal Concentration (MBC): ATCC 25923, 24 h
Text: as §1, §2

E. coli ATCC 25922 = assay: microbe, parasite or virus in culture; conditions: for Minimum Inhibitory Concentration (MIC): ATCC 25922, 18 h; for Minimum Bactericidal Concentration (MBC): ATCC 25922, 24 h
Text: as §1, §2

[2] = system: S. epidermidis ATCC 14990; assay: microbe, parasite or virus in culture; conditions: for Minimum Inhibitory Concentration (MIC): ATCC 14990, 18 h; for Minimum Bactericidal Concentration (MBC): ATCC 14990, 24 h
Text: as §1, §2

P. aeruginosa ATCC 27853 = assay: microbe, parasite or virus in culture; conditions: for Minimum Inhibitory Concentration (MIC): ATCC 27853, 18 h; for Minimum Bactericidal Concentration (MBC): ATCC 27853, 24 h
Text: as §1, §2

| Compound | MBC values over all ATCC strains tested (ATCC strains) | Minimum Inhibitory Concentration (MIC) (S. aureus ATCC 49230) [mg/L] | Minimum Bactericidal Concentration (MBC) (S. aureus ATCC 49230) [mg/L] | Minimum Inhibitory Concentration (MIC) (S. aureus ATCC 43300) [mg/L] | Minimum Bactericidal Concentration (MBC) (S. aureus ATCC 43300) [mg/L] | Minimum Inhibitory Concentration (MIC) [1] [mg/L] | Minimum Bactericidal Concentration (MBC) [1] [mg/L] | Minimum Inhibitory Concentration (MIC) (S. aureus ATCC 25923) [mg/L] | Minimum Bactericidal Concentration (MBC) (S. aureus ATCC 25923) [mg/L] | Minimum Inhibitory Concentration (MIC) (E. coli ATCC 25922) [mg/L] | Minimum Bactericidal Concentration (MBC) (E. coli ATCC 25922) [mg/L] | Minimum Inhibitory Concentration (MIC) [2] [mg/L] | Minimum Bactericidal Concentration (MBC) [2] [mg/L] | Minimum Inhibitory Concentration (MIC) (P. aeruginosa ATCC 27853) [mg/L] | Minimum Bactericidal Concentration (MBC) (P. aeruginosa ATCC 27853) [mg/L] | MIC values over all ATCC strains tested (ATCC strains) |
| --- | --- | --- | --- | --- | --- | --- | --- | --- | --- | --- | --- | --- | --- | --- | --- | --- |
| CC[C@H](C)[C@H](NC(=O)[C@H](CCCNC(=N)N)NC(=O)[C@H](CCC(N)=O)NC(=O)[C@@H](NC(=O)[C@@H](NC(=O)[C@H](CCCNC(=N)N)NC(=O)[C@H](CCCCN)NC(=O)[C@@H](N)Cc1ccccc1)[C@@H](C)CC)C(C)C)C(=O)N[C@@H](CCCCN)C(=O)N[C@@H](CC(=O)O)C(=O)N[C@@H](Cc1ccccc1)C(=O)N[C@@H](CC(C)C)C(=O)N[C@@H](CCCNC(=N)N)C(N)=O [FK-13] (H-FKRIVQRIKDFLR-NH2) | greater than 300 µg/mL | >300.00 | >300.00 | 300.00 | >300.00 | 150.00 | 150.00 | 300.00 | >300.00 | 75.00 | 150.00 | 150.00 | 150.00 | 300.00 | 300.00 |  |
| CC[C@H](C)[C@H](NC(=O)[C@H](CCCNC(=N)N)NC(=O)[C@H](CCC(N)=O)NC(=O)[C@@H](NC(=O)[C@@H](NC(=O)[C@H](CCCNC(=N)N)NC(=O)[C@@H](N)CCCCN)[C@@H](C)CC)C(C)C)C(=O)N[C@@H](CCCCN)C(=O)N[C@@H](CC(=O)O)C(=O)N[C@@H](Cc1ccccc1)C(=O)N[C@@H](CC(C)C)C(=O)N[C@@H](CCCNC(=N)N)C(N)=O [KR-12] (H-KRIVQRIKDFLR-NH2) |  | >300.00 | >300.00 | >300.00 | >300.00 | >300.00 | >300.00 | >300.00 | >300.00 | >300.00 | >300.00 | >300.00 | >300.00 | >300.00 | >300.00 | greater than 300 µg/mL |
